In patent US20120052079A1, “Compositions, Kits, and Methods for Predicting Anti-Cancer Response to Anthracyclines” (Dana-Farber Cancer Institute, Inc., priority 2010, published 2012):

What was measured:
Format in all cases: cell-based, human
BT549 cells [1] = assay: Cathepsin release and Bid, caspase 3, PARP cleavage by immunoblot; settings: for LAPTM4B knockdown-induced Bid truncation and apoptosis: BT549 pretreated with cathepsin inhibitors
Protocol: Cytosolic extraction was performed using the detergent digitonin which permeabilizes cholesterol-rich membranes such as plasma membrane, leaving the cholesterol-poor membranes of lysosomes and mitochondria more or less intact. Cells were exposed to an extraction buffer (250 mM sucrose, 20 mM Hepes, 10 mM KCl, 1.5 mM MgCl2, 1 mM EDTA, 1 mM EGTA, and 1 mM Pefabloc, pH 7.5) containing 25 μg/ml digitonin for 20 min on ice, inverting the tubes every 2 min. The extraction buffer was collected and proteins were precipitated by addition of 5% trichloric acid on ice for 10 min and centrifuged at ˜20,800×g for 15 min to obtain the protein pellet. The pellet was dissolved in lysis buffer.
Tumor cell line lysates or cytosols were fractionated in 7, 12 or 14% SDS-PAGE, electrophoretically transferred to a nitrocellulose membrane and probed with primary antibodies (monoclonal Anti-β-Actin antibody (Sigma), anti-Bid (BD PharMingen), anti-caspase 3, anti-H is, anti-LC3 and anti-PARP antibodies (Cell Signaling Technology), and anti-cathepsin B, anti-cathepsin D, anti-p62, HRP-conjugated secondary antibodies and FITC-conjugated secondary antibodies (Abcam). The probed proteins were visualized using the ECL Western blotting detection system from Pierce according to the manufacturer's instructions. Band densities were quantified on a AlphaImager HP imaging system (Cell Biosciences).

MDA468 cells = assay: Autophagy markers LC3 and p62 by immunoblot, LAPTM4B overexpression; settings: MDA468 with stable LAPTM4B over expression
Source text: Band densities were quantified on a AlphaImager HP imaging system (Cell Biosciences).

[2] = test system: MDA-MB-231 (MDA231), HCC38 and CAMA-1; assay: Cell growth assay, drug sensitivity after LAPTM4B/YWHAZ siRNA knockdown; settings: siRNA knockdown vs control siRNA
Protocol: Gene-specific and negative control oligonucleotides (Stealth™ Select RNAi, Invitrogen) were transfected using the Lipofectamine™ RNAi MAX protocol from Invitrogen. Three gene-specific oligonucleotide siRNAs were tested for each gene (LAPTM4b siRNA1: 5′-[…]-3′ and 3′-[…]-5′; LAPTM4b siRNA2: 5′-[…]-3′ and 3′-[…]-5′; LAPTM4b siRNA3: 5′-[…]-3′ and 3′-[…]-5′; LAPTM4b shRNA: Top strand, […], Bottom strand, […]; YWHAZ siRNA1: 5′-[…]-3′ and 3′-[…]-5′; YWHAZ siRNA2: 5′-[…]-3′ and 3′-[…]-5′; and YWHAZ siRNA3: 5′-[…]-3′ and 3′-[…]-5′). Transfections were performed in triplicate and the experiment was repeated four times to estimate the effect and standard deviation from the mean. Because specific antibodies were not available for the 12 genes tested, the effectiveness of siRNA knockdown by each oligonucleotide was determined by qRT-PCR assay of mRNA levels according to methods described herein.
(§1) Viable cell number was quantified using CellTiter 96® Aqueous One Solution Cell Proliferation Assay (Promega). Results are reported as optical density at 490 nm wavelength. Cells (4,000 well^−1) were seeded into 96-well plates in triplicate. siRNA transfections were performed 24 h after cell seeding. Chemotherapeutic drugs (daunorubicin, doxorubicin, paclitaxel, and cisplatin) were added 24 h after cell seeding or siRNA transfection. Cells were exposed to a series of concentrations of individual drugs for additional 48 h. Results are presented as the percentage of viable cells in drug-treated wells vs. media-treated control wells and plotted as a drug-dose dependent cell survive curve. The dose of drug causing a fifty percent reduction of viable cells (IC50) determined drug sensitivity. Drug-induced apoptosis was evaluated 48 h after drug treatment (doxorubicin at 1 μM or cisplatin at 25 μM) following siRNA transfection by detection of active caspase 3 and cleaved poly(ADP-ribose) polymerase (PARP) by Western blot analysis using caspase 3- and PARP-specific antibodies (Cell Signaling Technology), respectively.

HMEC cells = assay: Cell growth assay (CellTiter 96), drug IC50 in HMEC transfected with LAPTM4B-HA or YWHAZ-HA; settings: for effect of exogenous LAPTM4B or YWHAZ on sensitivity to drug: HMEC expressing exogenous LAPTM4B or YWHAZ
Source text: The full length LAPTM4B and YWHAZ cDNAs linked to an HA tag were cloned into the pWZL (Boehm et al. (2005) Mol. Cell. Biol. 25, 6464-6474) and pBabe vectors, respectively, and packaged using the Phoenix™ Retroviral System from Orbigen. pWZL-LAPTM4B HA and pBabe-YWHAZ-HA were introduced into HMEC cells by retroviral infection and stably selected with blasticidin and puromycin, respectively.
as §1

[3] = test system: MDA-MB-231 (MDA231) and BT549 cells; assay: Drug-induced apoptosis, Western blot for active caspase 3 and cleaved PARP; settings: doxorubicin 1 μM or cisplatin 25 μM, 48 h
Protocol: as §1

BT549 cells [4] = assay: Cellular distribution of doxorubicin (autofluorescence, confocal)
Protocol: Twenty-four h after transfection with specific siRNA or control oligos, cells were challenged with 0.5 μM doxorubicin in complete medium for 24 h. After 24 h, the drug was removed and cells were cultured in fresh drug-free medium and examined at 36 and 48 h time points. At each time point, cells were washed twice in PBS, and fixed for 5 min in 3.0% paraformaldehyde and permeabilized in 0.1% Triton X-100 for 5 min. Following washing with PBS, cells were mounted in Prolong Gold® anti-fade reagent with DAPI (Invitrogen). Subcellular localization of doxorubicin was viewed by the Rhodamine (Cy3) channel and nuclear staining was viewed by the DAPI channel on a Zeiss HAL100 fluorescence microscope.
Forty-eight hours after transfection with specific siRNA or scramble control oligonucleotide, cells were treated with 0.1 μM doxorubicin in complete medium for 24 hours. After 24 hours of drug exposure, the drug was removed and cells were cultured in fresh drug-free medium and examined 24 hours later. Cells were washed, fixed and stained with DAPI as described in Li et al. (2010) Nat. Med., 16, 214-218. Subcellular localization of doxorubicin autofluorescence (excited wave: 480 nm; emitted wave: 560-620 nm) and lysosomes indicated by LysoTracker DND-26 (excited wave: 504 nm; emitted wave: 509-540 nm) was examined on a Leica SP5X Laser Scanning Confocal Microscope with a white light laser.

MDA-MB-231 cells = assay: Cellular distribution of doxorubicin (autofluorescence); settings: 0.5 μM doxorubicin; detectable within 12 h to 24 h, sustained at 48 h
[5] = BT549 pretreated with pan-caspase inhibitor

**Q.** How did the “LAPTM4B knockdown-induced Bid truncation and apoptosis” value (BT549 cells [1]) turn out when `CCOC(=O)[C@H]1O[C@@H]1C(=O)N[C@@H](CC(C)C)C(=O)NCCC(C)C` (relative stereo) [EST, trans-epoxysuccinyl-L-leucylamindo-3-methylbutane ethyl ester] was run?
**A.** protected

**Q.** Which “starvation-induced autophagy (higher LC3II, lower p62) by LAPTM4B over expression” value (MDA468 cells) does the source give for `CCN(CC)CCCC(C)Nc1ccnc2cc(Cl)ccc12` (stereo not drawn) [chloroquine] here?
**A.** blocked

**Q.** How did the “sensitivity to drug after specific knockdown of LAPTM4B and YWHAZ” value (from here on “sensitivity to drug … of LAPTM4B and YWHAZ”) [2] turn out when `N.N.[Cl][Pt][Cl]` [cisplatin] was run?
**A.** weaker or no effect

**Q.** What about the “effect of exogenous LAPTM4B or YWHAZ on sensitivity to drug” value (HMEC cells) of the same compound?
**A.** no significant effect

**Q.** What about the “drug-induced apoptosis after knockdown of LAPTM4B or YWHAZ” value [3] of the same compound?
**A.** less apparent

**Q.** How did the “sensitivity to drug … of LAPTM4B and YWHAZ” value [2] turn out when `COc1cccc2c1C(=O)c1c(O)c3c(c(O)c1C2=O)C[C@@](O)(C(C)=O)C[C@@H]3O[C@H]1C[C@H](N)[C@H](O)[C@H](C)O1` [daunorubicin] was run?
**A.** increased sensitivity

**Q.** Which “doxorubicin distribution after down-regulation of LAPTM4B” value (BT549 cells [4]; BT549, LAPTM4B-specific siRNA, 48 hours exposure) does the source give for `COc1cccc2c1C(=O)c1c(O)c3c(c(O)c1C2=O)C[C@@](O)(C(=O)CO)C[C@@H]3O[C@H]1C[C@H](N)[C@H](O)[C@H](C)O1` [doxorubicin] here?
**A.** release of doxorubicin from lysosomes

**Q.** What about the “intracellular distribution of doxorubicin autofluorescence” value (BT549 cells [4]; BT549 overexpressing LAPTM4B, Lysotracker green DND-26) of the same compound?
**A.** co-localizes with the lysosome marker

**Q.** What about the “nuclear localization of doxorubicin after LAPTM4B siRNA knockdown” value (MDA-MB-231 cells) of the same compound?
**A.** substantial increase in nuclear localization

**Q.** What about the “sensitivity to drug … of LAPTM4B and YWHAZ” value [2] of the same compound?
**A.** increased sensitivity

**Q.** What about the “increase in IC50 of doxorubicin” value (HMEC cells; HMEC expressing exogenous LAPTM4B vs control vector, P<0.002) of the same compound?
**A.** 270%

**Q.** And the “increase in IC50 of doxorubicin” value (HMEC cells; HMEC expressing exogenous YWHAZ vs control vector, P=0.0001)?
**A.** 394%

**Q.** And the “drug-induced apoptosis after knockdown of LAPTM4B or YWHAZ” value [3]?
**A.** considerably increased

**Q.** With `CC(=O)O[C@H]1C(=O)[C@@]2(C)[C@H]([C@H](OC(=O)c3ccccc3)[C@]3(O)C[C@H](OC(=O)[C@H](O)[C@@H](NC(=O)c4ccccc4)c4ccccc4)C(C)=C1C3(C)C)[C@]1(OC(C)=O)CO[C@@H]1C[C@@H]2O` [paclitaxel] as the compound, how does the “sensitivity to drug … of LAPTM4B and YWHAZ” value [2] read?
**A.** weaker or no effect

**Q.** And the “effect of exogenous LAPTM4B or YWHAZ on sensitivity to drug” value (HMEC cells)?
**A.** no significant effect

**Q.** How did the “LAPTM4B knockdown-induced Bid truncation and apoptosis” value (BT549 cells [1]) turn out when pepstatin A was run?
**A.** protected

**Q.** For “z-Val-Ala-Asp-fluoromethylketone [z-VAD-FMK]”, which “Bid truncation after LAPTM4B knockdown” value (BT549 cells [1]; [5]) is on record?
**A.** did not prevent Bid truncation

**Q.** And the “caspase 3 activation after LAPTM4B knockdown” value (BT549 cells [1]; [5])?
**A.** sufficient to abrogate caspase 3 activation
